test system: HCV Genotype 1B replicon cells; assay type: cell-based; settings: Table 3; cytotoxicity, cell titer glo
Excerpt: The genotype 1a replicon contains several adaptive mutations (NS4B Q31H, NS5A K68R, NS5A S232I), the luciferase gene and encodes for neomycin resistance. The genotype 1b replicon, also referred to as the ET replicon, is stably transfected with RNA transcripts harboring a I389luc-ubi-neo/NS3-3′/ET replicon with firefly luciferase-ubiquitin-neomycin phosphotransferase fusion protein and EMCV-IRES driven NS3-5B polyprotein containing the cell culture adaptive mutations (E1202G; T1280I; K1846T) See, Kreiger, et al., Journal of Virology 75:4614-4624 (2001). Both cell lines were grown in DMEM, supplemented with 10% fetal calf serum, 2 mM Glutamine, Penicillin (100 IU/mL)/Streptomycin (100 μg/mL), 1× nonessential amino acids, and 250 μg/mL G418 (“Geneticin”). They were all available through Life Technologies (Bethesda, Md.). The cells were plated at 0.5×10^4 cells/well in 384 well plates containing compounds. The final concentration of compounds ranged between 0.1 nM to 50 μM and the final DMSO concentration of 0.5%.
Luciferase activity was measured 48 hours later by adding a Steady glo (Promega, Madison, Wis.). Percent inhibition of replication data was plotted relative to no compound control. Under the same condition, cytotoxicity of the compounds was determined using cell titer glo (Promega, Madison, Wis.). EC50 values were determined from a 10 point dose response curve using 2-4 fold serial dilutions for each compound, which spans a concentration range of at least a 1000 fold. Replicon EC50 values, the concentration of compound required to inhibit 50% of the assay response, were calculated by curve fitting data to the Hill equation, using a non-linear least-squares curve-fitting program. The software tested the data for quality and rejected compounds with high and low activity before fitting the equation below.

SMILES | CC50 [µM]
COC(=O)C(c1cc(-c2ccc(C3CC3)cc2C(F)(F)F)no1)n1cc2nc(-c3cccc(F)c3F)nc-2cn1 (stereo not shown) [Compound 178, Methyl {3-[4-cyclopropyl-2-(trifluoromethyl)phenyl]-5-isoxazolyl}[2-(2,3-difluorophenyl)-5H-imidazo[4,5-d]pyridazin-5-yl]acetate] | 25
O=C(OCCOCCO)C(c1cc(-c2ccc(C3CC3)cc2C(F)(F)F)no1)n1cc2nc(-c3cccc(F)c3F)nc-2cn1 (stereo not shown) [Compound 179, 2-[(2-hydroxyethyl)oxy]ethyl {3-[4-cyclopropyl-2-(trifluoromethyl)phenyl]-5-isoxazolyl}[2-(2,3-difluorophenyl)-5H-imidazo[4,5-d]pyridazin-5-yl]acetate] | 50
O=C(OCCCO)C(c1cc(-c2ccc(C3CC3)cc2C(F)(F)F)no1)n1cc2nc(-c3cccc(F)c3F)nc-2cn1 (stereo not shown) [Compound 182, 3-Hydroxypropyl {3-[4-cyclopropyl-2-(trifluoromethyl)phenyl]-5-isoxazolyl}[2-(2,3-difluorophenyl)-5H-imidazo[4,5-d]pyridazin-5-yl]acetate] | > 50
CCCOC(=O)C(c1cc(-c2ccc(C3CC3)cc2C(F)(F)F)no1)n1cc2nc(-c3cccc(F)c3F)nc-2cn1 (stereo not shown) [Compound 184, Propyl {3-[4-cyclopropyl-2-(trifluoromethyl)phenyl]-5-isoxazolyl}[2-(2,3-difluorophenyl)-5H-imidazo[4,5-d]pyridazin-5-yl]acetate] | 25
